From ChEMBL document CHEMBL3045179, “Mode of Action and QSAR Studies of Nitrification Inhibitors” (J Pestic Sci, 1997) come the findings set out here.

Series [1] relates to Nitrosomonas europaea. The series can be described thus: Inhibition of Nitrosomonas europaea ATCC 25978-mediated nitrification activity assessed as nitrite nitrogen formation after 7 to 10 days by Griess-Ilosvay method. In kind it is functional, organism-based. The following applies: read-out: pI50 (converted).
Series [2] is described as follows: Octanol-water partition coefficient, log P of the compound. The class given is physicochemical.
The subject of series [3] is Nitrosomonas europaea. Kind of series: Inhibition of Nitrosomonas europaea ATCC 25978-mediated nitrification activity assessed as nitrite nitrogen formation at 10 mg/kg after 7 to 10 days by Griess-Ilosvay method relative to control. The class given is functional.
In series [4] the test system is Nitrosomonas sp. TK794. Kind of series: Inhibition of Nitrosomonas sp. TK794-mediated nitrification activity assessed as nitrite nitrogen formation at 50 mg/kg after 7 to 10 days by Griess-Ilosvay method relative to control. The class given is functional.
Series [5] deals with Nitrosomonas europaea. Kind of series: Inhibition of Nitrosomonas europaea ATCC 25978-mediated nitrification activity assessed as nitrite nitrogen formation at 400 mg/kg after 7 to 10 days by Griess-Ilosvay method relative to control. In kind it is functional.
Series [6] concerns Nitrosomonas sp. TK794. The series can be described thus: Inhibition of Nitrosomonas sp. TK794-mediated nitrification activity assessed as nitrite nitrogen formation at 500 mg/kg after 7 to 10 days by Griess-Ilosvay method relative to control. In kind it is functional. A general note: Griess reagent forms a coloured azo dye with nitrite.
For series [7], the system named is Nitrosomonas sp. TK794. Kind of series: Inhibition of Nitrosomonas sp. TK794-mediated nitrification activity assessed as nitrite nitrogen formation at 4 mg/kg after 7 to 10 days by Griess-Ilosvay method relative to control. In kind it is functional.
Series [8] deals with Nitrosomonas europaea. The series can be described thus: Inhibition of Nitrosomonas europaea ATCC 25978-mediated nitrification activity assessed as nitrite nitrogen formation at 2 mg/kg after 7 to 10 days by Griess-Ilosvay method relative to control. The class given is functional.
For series [9], the system named is Nitrosomonas europaea. Kind of series: Inhibition of Nitrosomonas europaea ATCC 25978-mediated nitrification activity assessed as nitrite nitrogen formation at 0.1 mg/kg after 7 to 10 days by Griess-Ilosvay method relative to control. The following applies: values are per cent of control. The class given is functional.
Series [10] deals with Nitrosomonas sp. TK794. The series can be described thus: Inhibition of Nitrosomonas sp. TK794-mediated nitrification activity assessed as nitrite nitrogen formation at 0.1 mg/kg after 7 to 10 days by Griess-Ilosvay method relative to control. In kind it is functional.
The test system of series [11] is Nitrosomonas europaea. Kind of series: Inhibition of Nitrosomonas europaea ATCC 25978-mediated nitrification activity assessed as nitrite nitrogen formation at 5 mg/kg after 7 to 10 days by Griess-Ilosvay method relative to control. In kind it is functional.
Series [12] has as its system Nitrosomonas sp. TK794. Kind of series: Inhibition of Nitrosomonas sp. TK794-mediated nitrification activity assessed as nitrite nitrogen formation at 5 mg/kg after 7 to 10 days by Griess-Ilosvay method relative to control. The class given is functional.
The subject of series [13] is Nitrosomonas europaea. Kind of series: Inhibition of Nitrosomonas europaea ATCC 25978-mediated nitrification activity assessed as nitrite nitrogen formation at 200 mg/kg after 7 to 10 days by Griess-Ilosvay method relative to control. The class given is functional.
The test system of series [14] is Nitrosomonas sp. TK794. The series can be described thus: Inhibition of Nitrosomonas sp. TK794-mediated nitrification activity assessed as nitrite nitrogen formation at 25 mg/kg after 7 to 10 days by Griess-Ilosvay method relative to control. The class given is functional.

Broadly, the logP is the decadic logarithm of the partition coefficient of the neutral form, usually between octanol and water. A word on the inhibition in vivo: it is the share of the control response that was lost under treatment. Take `CCCCCCCCCCNc1nc(C)nc(C(Cl)(Cl)Cl)n1`: the IC50 in series [1] is 9.12 µM. Further, in [2] (read-out: logP), the log partition coefficient (logP) is 8.27. Besides, the inhibition in vivo at 10 mg/kg in [3] amounted to 56.2%. Moreover, in [4], the inhibition in vivo at 50 mg/kg stood at 50%.
Turning to `CCCCCCCCCCCCCCCCNc1nc(C)nc(C(Cl)(Cl)Cl)n1`, in series [5], the inhibition in vivo at 400 mg/kg came out at 45.2%. The compound also registered a logP in series [2] of 11.4. In series [6], the inhibition in vivo at 500 mg/kg came out at 81%.
Turning to `Nc1nc(N)nc(C(Cl)(Cl)Cl)n1`, the inhibition in vivo at 4 mg/kg in series [7] stood at 40%. Also, the IC50 in [1] is 7.08 µM. Moreover, the lipophilicity (logP) in [2] (read-out: logP) was found to be 1.21. Besides, in series [8], the inhibition in vivo at 2 mg/kg came out at 63.2%.
The term residual activity denotes the share of the control activity or signal that is left under treatment. In the case of `CCNc1nc(OC)nc(C(Cl)(Cl)Cl)n1`, the residual activity at 0.1 mg/kg in [9] is 49.1%. Besides, the inhibition in vivo at 0.1 mg/kg in [10] was determined as 56.8%. In [1], the IC50 was 0.331 µM. Besides, in series [2] (read-out: logP), the logP was 3.57.
`CCCCCCCCCCCCNc1nc(C(Cl)(Cl)Cl)nc(C(Cl)(Cl)Cl)n1`: the inhibition in vivo at 5 mg/kg was 50% in series [11] and 55.2% in [12]. Moreover, the IC50 in series [1] was 5.75 µM. The log partition coefficient (logP) in series [2] (read-out: logP) amounted to 8.96.
The compound `CCCCCCCCCCCCCCCCNc1nc(C(Cl)(Cl)Cl)nc(C(Cl)(Cl)Cl)n1` came in with a logP in series [2] of 11.05. Also, the inhibition in vivo at 500 mg/kg in series [6] was 52.9%. For the same compound, the inhibition in vivo at 200 mg/kg in series [13] was 52.8%.
In the case of `ClC(Cl)(Cl)c1nc(C(Cl)(Cl)Cl)nc(C(Cl)(Cl)Cl)n1`, the inhibition in vivo at 25 mg/kg in series [14] was determined as 50%. Further, the lipophilicity (logP) in series [2] (read-out: logP) stood at 3.71.
